Measurements reported in patent publication US20040219158A1, “Compositions and methods for diagnosis and therapy of medical conditions involving infection with pseudomonas bacteria” (priority 2003, published 2004).

Biological target: PA-IIL lectin (Pseudomonas aeruginosa, UniProt Q9HYN5)
Assay: Inhibition of binding of HRP-labeled fucosylated polymer (Fuc-PAA-biotin) to immobilized PA-IIL lectin
Method: Biotinylated polymers of Fucose (Fuc-PAA-biotin, GlycoTech Corp.) are allowed to couple HRP-labeled streptavidin (KPL labs) overnight at 4° C. PA-IIL lectin is immobilized in plastic microtiter wells and allowed to react with the HRP-labeled fucosylated polymer. Binding is detected by TMB substrate followed by color development with 1 M H3PO4 (FIG. 20). Conditions chosen for the assay are coating with 3 μg/ml PA-IIL and incubation of inhibitor with 2 μg/ml of fucosylated polymer.

Chain of PA-IIL lectin (Q9HYN5 entry or part of it): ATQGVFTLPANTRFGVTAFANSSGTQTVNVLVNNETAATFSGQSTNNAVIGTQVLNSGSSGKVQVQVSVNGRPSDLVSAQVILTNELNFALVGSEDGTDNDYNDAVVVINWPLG

Compound	IC50 [µM]	inhibition of PA-IIL lectin (negative control saccharide, data not shown)
O=C[C@@H](O)[C@@H](O)[C@H](O)[C@H](O)CO [Mannose]	95	–
O=C[C@H](O)[C@@H](O)[C@@H](O)[C@H](O)CO [Galactose]	–	no inhibition
